Test results from EP0480690A1, “Aqueous ophthalmic microemulsions of tepoxalin” (CIBA-GEIGY AG, priority 1990, dated 1992).

Legend:
[1] = Accelerated degradation of tepoxalin (16 hours at 100°C, HPLC); assay type: physicochemical
Method: The results of the first stability study prompted an investigation for a way to reformulate. Tepoxalin appears to hydrolyze at the amide group to form a carboxylic acid. An accelerated procedure has been developed to observe this degradation within 16 hours. The sample is analyzed by reversed-phase HPLC using a diode array for detection. […] With disodium Edetate in the microemulsion, the drug degraded at and above pH 7.0; degradation was minimal at pH's 5.0, 5.5 and 6.0. Thus, a second stability study was begun with 0.03% disodium Edetate in the formulation and the pH adjusted to 5.9 - 6.1 with a citric acid/sodium phosphate dibasic buffer.
A number of experiments were performed in succession in order to elucidate a mechanism for the degradation of tepoxalin in water and in the microemulsion and to determine optimum conditions for the tepoxalin microemulsion. The drug is suspected of vulnerability to acid and base catalysis of its […] amide group forming a carboxylic acid. The experiments and results: • (a) 0.1% tepoxalin was dissolved in 50:50 water: ethanol and aliquots were pH adjusted with 1M NaOH to 5.0, 6.0, 7.0, 8.0 and 12.6. The aliquots were heated in capped reaction vials for 16 hours at 100°C.
Two drops of 1M citric acid solution were added to an aliquot (1 ml) and the pH was adjusted with 1.0 M sodium phosphate dibasic to pH 5.0, 6.0, 7.0, and 7.6. The samples were heated as before.
The chromatograms show two major degradation products: one eluting before tepoxalin and another after.
The optimum pH appears between pH 6.2 and 6.4, but there is still significant degradation. • (d) The previous experiment (c) was repeated with disodium Edetate 0.03% in each sample and with the same pH range.
The presence of the second degradate that elutes before tepoxalin is also minimal. • (e) Experiment (d) was repeated with a broader pH range: 5.0, 5.5, 6.0, and 7.0.

rabbit cornea = test: In vitro corneal penetration in modified Ussing chambers; assay type: in vitro ADME; conditions: 0.1% suspension and 0.1% microemulsion, 0 to 240 minutes
Method: Modified Ussing type chambers (H.F. Edelhauser, J.R. Hoffert, P.O. Fromm, Invest. Ophthalmol. Vis. Sci., 4:290-296 (1965)) designed with 2.5 ml donor and 2.5 ml receiver cells (separated by the cornea which is mounted between two sealing rings) are used for the studies to determine penetration of the cornea by the microemulsions of the invention. The system is 2-chambered (in vitro cells) (see Figure 1) and is designed to monitor the penetration of drug entities across biological membranes. Usually the cells are temperature controlled by means of an exterior water jacket; the stirring of the dosing and receiving solutions in the cells is achieved by bubbling a gas through the cells. In the case of the cornea, the gas is a mixture of 5% CO₂ balanced with oxygen, to maintain physiological Ph.
The eyes were enucleated with the conjunctival sac and lids attached. The cornea was excised and mounted using the Dikstein and Maurice Technique (S. Dikstein and D.M. Maurice, J. Physiol., 221: 29-41 (1972)). […]
100 µl Aliquots were sampled from the receiver side over a 4-hour period (0, 15, 30, 45, 60, 90, 120, 180 and 240 minutes). […] The mounted corneas were removed from the cells and the percentage hydration calculated by weighing the isolated tissue before and after drying (the corneas were placed in an oven overnight at 45°C). […] Untreated corneas were assessed as controls. […]

[2] = Solubility studies on tepoxalin in various vehicles; assay type: physicochemical
Description: The low aqueous solubility of tepoxalin prompted solubility experiments with oils, surfactants, hydroxypropyl-beta-cyclodextrin, and combinations thereof. These experiments are summarized above in Table 1. A tepoxalin content of greater than 0.1% could be attained with a microemulsion using 1% castor oil and 2% of a Tween (polysorbate). […] The sequence of adding, mixing, and sonicating the drug and excipients is important in attaining a concentration greater than 0.1%.
Thus, 0.134% of the 0.15% drug in the emulsion resides in the interface.

pH of optimum stability ([1]; microemulsion with disodium Edetate 0.03%, from tepoxalin peak areas and heights): optimum stability between 5.5 and 6.0
pH of minimum degradation ([1]; microemulsion without Edetate, pH range 5 to 7.6): 6.2 - 6.4
Tepoxalin Solubility ([2]; Matrix: Water, Neat): 0.00044%
Tepoxalin Solubility ([2]; Oil, Surfactant Microemulsion: castor oil 1%, Tween 60 2%): 0.15%
Tepoxalin Solubility ([2]; Oil, Surfactant Microemulsion: castor oil 1%, Tween 80 2% (tepoxalin is added after microemulsion)): 0.085%
Tepoxalin Solubility ([2]; Oil, Surfactant Microemulsion: castor oil 1%, Tween 80 2% (tepoxalin is added before emulsion is prepared)): 0.147%
Tepoxalin Solubility ([2]; Oil, Surfactant Microemulsion: castor oil 2%, Tween 80 2%): 0.106%
Tepoxalin Solubility ([2]; Oil, Surfactant Microemulsion: castor oil 3%, Pluronic P-105 7%): 0.108%
Tepoxalin Solubility ([2]; Oils: Cottonseed, Neat): 0.06%
Tepoxalin Solubility ([2]; Oils: castor, Neat): 1.6%
Tepoxalin Solubility ([2]; Oils: mineral, Neat): 0.0%
Tepoxalin Solubility ([2]; Oils: perfluoro-decalin, Neat): 0.0%
Tepoxalin Solubility ([2]; Oils: sesame, Neat): 0.4%
Tepoxalin Solubility ([2]; Oils: sunflower Seed, Neat): 0.4%
Tepoxalin Solubility ([2]; Surfactant and HP-β-CD Solution: HP-β-CD 5%, Tween 80 2%): 0.097%
Tepoxalin Solubility ([2]; Surfactant and HP-β-CD Solution: HP-β-CD 10%, Tween 80 1%): 0.113%
Tepoxalin Solubility ([2]; Surfactants: Pluronic F-127, aqueous 6%): 0.035%
Tepoxalin Solubility ([2]; Surfactants: Pluronic P-105, aqueous 6% w/w): 0.099%
Tepoxalin Solubility ([2]; Surfactants: Tween 20, aqueous 2%): 0.053%
Tepoxalin Solubility ([2]; Surfactants: Tween 40, aqueous 2%): 0.066%
Tepoxalin Solubility ([2]; Surfactants: Tween 60, aqueous 2%): 0.079%
Tepoxalin Solubility ([2]; Surfactants: Tween 80, aqueous 1%): 0.030%
Tepoxalin Solubility ([2]; Surfactants: Tween 80, aqueous 2%): 0.089%
Tepoxalin Solubility ([2]; Surfactants: Tween 80, aqueous 3%): 0.099%
Tepoxalin Solubility ([2]; Surfactants: Tween 80, aqueous 6%): 0.120%
Maximum tepoxalin solubility for castor oil ([2]; castor oil): 1.6%
tepoxalin content ([2]; microemulsion using 1% castor oil and 2% of a Tween (polysorbate)): greater than 0.1%
drug in the emulsion that resides in the interface ([2]; of the 0.15% drug in the emulsion, 1% castor oil dispersed): 0.134%
SMILES: COc1ccc(-n2nc(CCC(=O)N(C)O)cc2-c2ccc(Cl)cc2)cc1 [Tepoxalin, 3-[5-(4-chlorophenyl)-1-(4-methoxyphenyl)-3-pyrazolyl]-N-hydroxy-N-methylpropanamide]
degradation of tepoxalin ([1]; 0.1% microemulsion (castor oil, Tween 60, citrate/phosphate buffer), pH 5.0, 6.0, 7.0, 7.6, no Edetate, 16 hours at 100°C): The degradation occurs greatest at pH 5.0 and 7.6
degradation of tepoxalin ([1]; 0.1% tepoxalin in 50:50 water:ethanol, pH 5.0, 6.0, 7.0, 8.0, 12.6, 16 hours at 100°C): a degradation peak eluting after tepoxalin in samples at pH 6, 7, 8, 12.6 but not at pH 5.0
degradation of tepoxalin ([1]; microemulsion with disodium Edetate 0.03%, pH 5.0, 5.5, 6.0 and 7.0): Degradation was minimal at pH 5.0, 5.5, and 6.0
degradation of tepoxalin ([1]; microemulsion with disodium Edetate 0.03%, pH 6.0 to 7.0): Degradation is minimal at pH 6.0 and increases with pH to 7.0
penetration of tepoxalin across the cornea (rabbit cornea): penetrating the cornea from both formulations
